Experimental data from ChEMBL document CHEMBL1201862, “PubChem BioAssay data set” (2004).
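The compound was tested at five concentrations on cells cultured in 96-well plates, with a 48-hour exposure period. GI50: concentration for 50% inhibition of growth.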 Activity calls are given as the source filed them. No stated cut-off is given here; in the data, active = GI50 up to about 1.1 µM and inactive = higher.

Experiments:
Test in all cases: growth of human tumour cells (NCI), 48 h
DMS-273 = system: DMS-273
HOP-18 = system: HOP-18
KM-20L2 = system: KM-20L2
LXFL 529 = system: LXFL 529
M19-MEL = system: M19-MEL
RXF 631 = system: RXF 631
SNB-78 = system: SNB-78

Measured: GI50

O=C(/C=C/c1ccccc1O)c1cccs1
inactive: DMS-273 > 100 µM | HOP-18 57.7 µM | KM-20L2 > 100 µM | LXFL 529 > 100 µM | M19-MEL > 100 µM | RXF 631 > 100 µM | SNB-78 > 100 µM

O=C1C(=O)N(c2cc(Cl)ccc2Cl)C(=O)C(=O)C1c1nc2ccccc2o1
inactive: DMS-273 > 100 µM | HOP-18 63.1 µM | KM-20L2 > 100 µM | LXFL 529 > 100 µM | M19-MEL > 100 µM | RXF 631 > 100 µM | SNB-78 > 100 µM

CC1NOC(=O)C1/N=N/c1ccccc1Cl (stereo not given)
inactive: HOP-18 35 µM | KM-20L2 68.4 µM | LXFL 529 45.5 µM | M19-MEL 23 µM | RXF 631 37.1 µM | SNB-78 52.5 µM

CCOC(=O)c1ncoc1[C@H]1COC(C)(C)O1
inactive: DMS-273 > 100 µM | HOP-18 > 100 µM | KM-20L2 > 100 µM | LXFL 529 > 100 µM | M19-MEL > 100 µM | RXF 631 > 100 µM | SNB-78 > 100 µM

Oc1cccc2nc3cc(CN4CCOCC4)c(CN4CCOCC4)cc3nc12
inactive: DMS-273 54.7 µM | HOP-18 59.7 µM | KM-20L2 48.9 µM | LXFL 529 48.1 µM | M19-MEL 25.9 µM | RXF 631 56.4 µM | SNB-78 > 100 µM

NC(=O)c1csc(CCCCCCc2nc(C(N)=O)cs2)n1
inactive: DMS-273 > 100 µM | HOP-18 > 100 µM | KM-20L2 > 100 µM | LXFL 529 > 100 µM | M19-MEL 18.7 µM | RXF 631 > 100 µM | SNB-78 > 100 µM

COCCOCCOCCOc1cccc2c1C(=O)c1cccc(OCCOCCOCCOC)c1C2=O
inactive: DMS-273 > 100 µM | HOP-18 > 100 µM | KM-20L2 > 100 µM | LXFL 529 > 100 µM | M19-MEL > 100 µM | RXF 631 > 100 µM | SNB-78 > 100 µM

CNC(C)Cc1ccc(O)cc1 (stereo not given)
inactive: DMS-273 > 100 µM | HOP-18 > 100 µM | KM-20L2 > 100 µM | LXFL 529 > 100 µM | RXF 631 > 100 µM | SNB-78 > 100 µM

O=C1NN=C(c2ccc([N+](=O)[O-])cc2)C1n1nc(-c2ccccc2)c2ccccc2c1=O (stereo not given)
inactive: DMS-273 > 46 µM | HOP-18 > 100 µM | KM-20L2 > 100 µM | LXFL 529 > 100 µM | M19-MEL > 100 µM | RXF 631 > 100 µM | SNB-78 > 100 µM

C#C[C@H]1CCCCCC1O (stereo not given in full)
inactive: DMS-273 > 100 µM | HOP-18 54.6 µM | KM-20L2 > 100 µM | LXFL 529 96.8 µM | M19-MEL > 100 µM | RXF 631 > 100 µM | SNB-78 > 100 µM

O=C1c2ccccc2C(=O)N1CCn1nc(-c2ccccc2)cc(-c2ccccc2)c1=O
inactive: DMS-273 49.5 µM | HOP-18 42.6 µM | KM-20L2 > 100 µM | LXFL 529 52.2 µM | M19-MEL 69.3 µM | RXF 631 27.7 µM | SNB-78 > 100 µM
